Source: patent publication US11667602B2, “Compounds and their use” (AstraZeneca AB, priority 2020, dated 2023)
Values after ≈ are worked out from the molar mass of the structure shown. Read-outs that look alike come from different tables or passages of the source.

What was measured:
[1] = Human Liver Microsomal Stability (Test C); format: in vitro ADME; conditions: human, liver microsomes
Summary of the method: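 CLint (μl/min/mg protein) derived from compound depletion in human liver microsomes following a published standardized early-DMPK protocol; replicate determinations given as arithmetic mean.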

[2] = Human Plasma Protein Binding (Test B); format: in vitro ADME; conditions: fraction unbound (fu)
Summary of the method: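 Values given as % free (fu) in human plasma, using the method of Wernevik et al. (2020). For compounds tested more than once, the arithmetic mean is given.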

human RXFP1 = target: T1, human RXFP1 (Homo sapiens, UniProt Q9HBX9); test: RXFP1 Hu cAMP (Test A); format: cell-based; design: expressed in transfected cells; host or cells: Jump-In T-REx CHO-K1 cells (ThermoFisher), induced with 10 ng/ml doxycycline for 24 h
T1 sequence (Q9HBX9 1-757): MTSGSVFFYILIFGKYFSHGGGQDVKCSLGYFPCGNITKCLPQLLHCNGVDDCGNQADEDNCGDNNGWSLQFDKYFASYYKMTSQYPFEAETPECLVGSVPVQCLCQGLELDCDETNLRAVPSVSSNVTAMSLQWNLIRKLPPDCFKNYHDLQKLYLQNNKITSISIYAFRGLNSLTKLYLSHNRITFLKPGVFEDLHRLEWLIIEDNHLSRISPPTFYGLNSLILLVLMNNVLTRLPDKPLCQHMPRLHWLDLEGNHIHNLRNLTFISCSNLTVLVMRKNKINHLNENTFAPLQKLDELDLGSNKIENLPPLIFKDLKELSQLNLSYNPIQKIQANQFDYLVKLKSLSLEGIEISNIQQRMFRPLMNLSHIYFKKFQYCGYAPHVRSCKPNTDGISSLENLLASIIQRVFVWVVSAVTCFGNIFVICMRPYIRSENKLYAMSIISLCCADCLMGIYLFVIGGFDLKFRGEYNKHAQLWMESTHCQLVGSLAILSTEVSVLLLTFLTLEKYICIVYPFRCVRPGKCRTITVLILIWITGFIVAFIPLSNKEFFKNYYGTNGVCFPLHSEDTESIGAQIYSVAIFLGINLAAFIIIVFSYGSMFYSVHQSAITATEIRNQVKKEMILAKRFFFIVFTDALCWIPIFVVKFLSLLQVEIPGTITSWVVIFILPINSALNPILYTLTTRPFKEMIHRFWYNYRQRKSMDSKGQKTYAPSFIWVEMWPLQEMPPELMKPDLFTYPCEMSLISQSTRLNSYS
Summary of the method: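 Competitive HTRF cAMP readout (2 h, room temperature) in CHO-K1 cells stably expressing human RXFP1, induced with 10 ng/ml doxycycline for 24 h; IBMX 0.5 mM final.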

[3] = Rat Hepatocyte Stability (Test E); format: in vitro ADME; conditions: rat, hepatocytes, geometric mean if run multiple times
Summary of the method: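 Intrinsic clearance in rat hepatocytes, expressed as μl/min/10^6 cells, following the literature integrated DMPK panel method. Repeat determinations combined as geometric mean.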

[4] = Human Hepatocyte Stability (Test D); format: in vitro ADME; conditions: human, cryopreserved pooled human hepatocytes (LiverPool 10-Donor), geometric mean if run multiple times
Summary of the method: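 Intrinsic clearance (μL/min/10^6 cells), derived as kV/N from the log-linear loss of parent compound. Compound incubated at 37 °C with cryopreserved pooled human hepatocytes, 0.25×10^6 cells in 0.25 mL L-15; dosing solution 100 μM in acetonitrile. Singlicate incubations, cassette LC-MS; repeats reported as geometric mean.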

Solubility (Test F) = format: physicochemical; conditions: arithmetic mean if run multiple times
Method: The assay was conducted according to the Solubility Assay described in pages 164-167 of Wernevik, J. et al., “A Fully Integrated Assay Panel for Early Drug Metabolism and Pharmacokinetics Profiling”, Assay and Drug Development Technologies, 2020, 18(4), 157-179. Data are reported in Table 36 as solubility ([…]. Where the assay was run multiple times for the same compound, the arithmetic mean is reported.

[5] = RXFP1 Hu cAMP, read-out: Test A EC50

| SMILES | microsomal CLint [1] | Test B Human Plasma Protein Binding (% free) [2] | Test A Sinf (human RXFP1; RXFP1 Hu cAMP) | EC50 (human RXFP1; [5]) | hepatocyte CLint [3] | hepatocyte CLint at 1 µM [4] | solubility (Solubility (Test F)) | EC50 (human RXFP1; Test A EC50, RXFP1 Hu cAMP) |
| --- | --- | --- | --- | --- | --- | --- | --- | --- |
| COc1cc(F)c(-c2ccc(C(=O)O)cc2)cc1C(=O)N[C@H]1[C@@H](C(=O)Nc2ccc(F)c(S(=O)(=O)C(F)(F)F)c2)[C@@H]2C=C[C@H]1C2 (racemic) [Example 296, rac-2′-Fluoro-5′-(((1R,2R,3S,4S)-3-((4-fluoro-3-((trifluoromethyl)sulfonyl)phenyl)carbamoyl)bicyclo[2.2.1]hept-5-en-2-yl)carbamoyl)-4′-methoxy-[1,1′-biphenyl]-4-carboxylic acid] | 15 µL/min/mg | <0.32 % free | 98% | 0.22 µM | 17 µL/min/1e6 cells | 22 µL/min/1e6 cells | 640 µM (≈ 416 µg/mL) |  |
| COc1cc(C#N)c(O[C@H]2CC[C@@](C)(C(=O)O)CC2)cc1C(=O)N[C@@H]1[C@H]2CC[C@H](C2)[C@@H]1C(=O)NC1(C)CCC1 [Example 90] | < 3 µL/min/mg | 14 % free | 111% | 0.14 µM | 18 µL/min/1e6 cells | < 1 µL/min/1e6 cells | 800 µM (≈ 430 µg/mL) |  |
| COc1cc(F)c(-c2ccc(C[C@@H](C(=O)O)N(C)C)cc2)cc1C(=O)N[C@@H]1[C@H]2CC[C@H](C2)[C@@H]1C(=O)Nc1cccc(S(=O)(=O)C(F)(F)F)c1 (racemic) [Example 289, (S)-2-(Dimethylamino)-3-(2′-fluoro-4′-methoxy-5′-(((1RS,2SR,3RS,4SR)-3-((3-((trifluoromethyl)sulfonyl)phenyl)carbamoyl)bicyclo[2.2.1]heptan-2-yl)carbamoyl)-[1,1′-biphenyl]-4-yl)propanoic acid] | 21 µL/min/mg | 1 % free | 112% | 0.47 µM | 11 µL/min/1e6 cells | 7.2 µL/min/1e6 cells | 36 µM (≈ 25.4 µg/mL) |  |
| COc1cc(F)c(-c2ccc(CCC(=O)O)nn2)cc1C(=O)N[C@@H]1[C@H]2CC[C@H](C2)[C@@H]1C(=O)Nc1cccc(S(=O)(=O)C(F)(F)F)c1 [Example 245] | 45 µL/min/mg | 5 % free | 104% | 0.64 µM | 15 µL/min/1e6 cells | 13 µL/min/1e6 cells | 980 µM (≈ 651 µg/mL) |  |
| COc1cc(F)c(O[C@H]2CC[C@@H](C(=O)O)CC2)cc1C(=O)N[C@@H]1[C@H]2CC[C@H](C2)[C@@H]1C(=O)Nc1cccc(S(=O)(=O)C(F)(F)F)c1 [Example 491] | 42 µL/min/mg | 2.1 % free | 102% | 0.042 µM | 23 µL/min/1e6 cells | 15 µL/min/1e6 cells | 550 µM (≈ 361 µg/mL) |  |
| COc1cc(F)c(-c2ccc(C(=O)O)cc2)cc1C(=O)N[C@H]1[C@@H]2CC[C@@H](C2)[C@H]1C(=O)Nc1ccc(F)c(C(F)(F)F)c1 (single isomer, unassigned) [Example 591] | 19 µL/min/mg | <0.36 % free | 111% |  | 28 µL/min/1e6 cells | 140 µL/min/1e6 cells | > 1000 µM |  |
| Cc1cc(F)c(O[C@H]2CC[C@@](C)(C(=O)O)CC2)cc1C(=O)N[C@@H]1[C@H]2CC[C@H](C2)[C@@H]1C(=O)NCC1(C)CCC1 [Example 5, (1S,4s)-4-(2-Fluoro-4-methyl-5-(((1S,2R,3S,4R)-3-(((1-methylcyclobutyl)methyl)carbamoyl)bicyclo[2.2.1]heptan-2-yl)carbamoyl)phenoxy)-1-methylcyclohexane-1-carboxylic acid] | 16 µL/min/mg | 2.4 % free | 85% |  | 11 µL/min/1e6 cells | 15 µL/min/1e6 cells | 800 µM (≈ 423 µg/mL) | > 1.7 µM |
| COc1cc(F)c(O[C@H]2CC[C@@](C)(C(=O)O)CC2)cc1C(=O)N[C@@H]1[C@H]2CC[C@H](C2)[C@@H]1C(=O)NCC(C)(C)C [Example 35, (1S,4s)-4-(2-Fluoro-4-methoxy-5-(((1S,2R,3S,4R)-3-(neopentylcarbamoyl)bicyclo[2.2.1]heptan-2-yl)carbamoyl)phenoxy)-1-methylcyclohexane-1-carboxylic acid] | 14 µL/min/mg | 8.2 % free |  |  | 23 µL/min/1e6 cells | 2.7 µL/min/1e6 cells | > 730 µM | 0.039 µM |
| COc1cc(C#N)c(O[C@H]2CC[C@@](C)(C(=O)O)CC2)cc1C(=O)NC1C2CCC(O2)C1C(=O)NCC1(C)CCC1 (single isomer, unassigned) [Example 534, (1R,4s)-4-(2-Cyano-4-methoxy-5-(((1S*,2S*,3R*,4R*)-3-(((1-methylcyclobutyl)methyl)carbamoyl)-7-oxabicyclo[2.2.1]heptan-2-yl)carbamoyl)phenoxy)-1-methylcyclohexane-1-carboxylic acid] | 16 µL/min/mg | 7.1 % free | 106% | 0.099 µM | 19 µL/min/1e6 cells | 43 µL/min/1e6 cells | > 1000 µM |  |
| COc1cc(F)c(O[C@H]2CC[C@@](C)(C(=O)O)CC2)cc1C(=O)Nc1ccc(C)cc1C(=O)NCC1(C)CCC1 [Example 216, (1s,4s)-4-(2-Fluoro-4-methoxy-5-((4-methyl-2-(((1-methylcyclobutyl)methyl)-carbamoyl)phenyl)carbamoyl)phenoxy)-1-methylcyclohexane-1-carboxylic acid] | < 3 µL/min/mg | 0.64 % free | 132% | 0.21 µM | 19 µL/min/1e6 cells | 4.2 µL/min/1e6 cells | 3.1 µM (≈ 1.68 µg/mL) |  |
| COc1cc(F)c(O[C@H]2CC[C@@](CO)(C(=O)O)CC2)cc1C(=O)N[C@@H]1[C@H]2CC[C@H](C2)[C@@H]1C(=O)NCC1(C(F)(F)F)CCC1 [Example 365] | 14 µL/min/mg | 7.8 % free | 113% | 0.057 µM | 15 µL/min/1e6 cells | 9.3 µL/min/1e6 cells | 980 µM (≈ 602 µg/mL) |  |
| COc1cc(F)c(-c2ccc(C(=O)O)cc2)cc1C(=O)N[C@H]1[C@@H](C(=O)Nc2cc(F)cc(C(F)(F)F)c2)[C@@H]2C=C[C@H]1C2 (racemic) [Example 308] | 4.9 µL/min/mg | 0.16 % free | 109% |  | 33 µL/min/1e6 cells | 14 µL/min/1e6 cells | > 1000 µM |  |
